The record followed here is BindingDB's records for doi:10.1021/jm900135r (Washington University, 2009).

The structures appear in SMILES notation. Where a SMILES comes first, the peptide text is derived from it. [ ]: non-standard residue; d: D form. ξ: configuration not given here. Ile(3ξ) = CCC(C)[C@H](N)C(=O)O; Thr(3ξ) = CC(O)[C@H](N)C(=O)O

By IC50 is commonly meant the point on the concentration scale where inhibition reaches its midpoint.

The target of this assay is Caspase-8 (Homo sapiens, UniProt Q14790). The assay is described as follows: Enzyme Inhibition Assay. The protocol: The caspase enzymatic activity was determined by measuring the accumulation of a fluorogenic product. All assays were prepared in 96-well format. Recombinant caspase enzyme was first assayed to determine the optimal concentration for each experiment. Peptide inhibitors with known IC50 values were tested together with the compounds as a control for each caspase assay. […] Compounds were tested in duplicate and IC50 curves were calculated for all inhibitors assayed.
Caspase-8, sequence (Q14790 217-374 limits assumed): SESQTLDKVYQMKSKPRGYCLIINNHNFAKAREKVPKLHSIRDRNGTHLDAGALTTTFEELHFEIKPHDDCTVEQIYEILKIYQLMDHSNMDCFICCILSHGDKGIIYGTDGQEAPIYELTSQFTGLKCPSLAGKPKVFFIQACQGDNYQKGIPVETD
Caspase-8, sequence (Q14790 385-479 limits assumed): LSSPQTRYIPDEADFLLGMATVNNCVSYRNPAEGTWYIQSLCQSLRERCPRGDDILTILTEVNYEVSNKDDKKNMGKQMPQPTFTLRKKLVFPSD

For the compound `CCC(C)[C@H](NC(C)=O)C(=O)N[C@@H](CCC(=O)O)C(=O)N[C@H](C(=O)N[C@H](C=O)CC(=O)O)C(C)O` (stereo partly drawn) [(4S)-4-{[(1S)-1-{[(2S)-1-carboxy-3-oxopropan-2-yl]carbamoyl}-2-hydroxypropyl]carbamoyl}-4-[(2S)-2-acetamido-3-methylpentanamido]butanoic acid] (Ac-[Ile(3ξ)]E[Thr(3ξ)]D-aldehyde), 4.2 nM corresponded to half-maximal inhibition (IC50).
